Earlier results as cited in patent US6627614B1, “Sequential therapy comprising a 20(S)-camptothecin and an anthracycline” (priority 2002, dated 2003).
Values belong to the molecule of their own block, whether it stands above or below them.

How the values were obtained:
[1] = system: human colon cancer xenografts
[2] = system: various types of cancer, including primary cancer and metastasis; conditions: patients, oral
[3] = system: human tumor xenografts
[4] = administered intravenously, patients
[5] = system: nontumorigenic and tumorigenic human cells
[6] = not given; remark: listed apart in the source

SMILES: CC[C@@]1(O)C(=O)OCc2c1cc1n(c2=O)Cc2cc3c(N)cccc3nc2-1 [9AC, 9-Amino-20(S)-Camptothecin]
anticancer activity against human colon cancer xenografts [1]: high anticancer activity

SMILES: CC[C@@]1(O)C(=O)OCc2c1cc1n(c2=O)Cc2cc3c([N+](=O)[O-])cccc3nc2-1 [9NC, 9-nitrocamptothecin]
tumors known to regress after exposure [2]: breast carcinoma, ovarian carcinoma, cholangiocarcinoma, monomyelocytic leukemia, and pancreatic carcinoma
activity against human tumor xenograft models ([3]; human tumor xenograft models): high activity
growth of human tumor xenografts ([3]; immunodeficient nude mice): inhibited the growth
regression of established human tumors ([3]; tumors established as xenografts in nude mice): induced regression

SMILES: CC[C@@]1(O)C(=O)OCc2c1cc1n(c2=O)Cc2cc3cc4c(cc3nc2-1)OCO4 [10,11 MD, 10,11-Methylendioxy-20(S)-Camptothecin]
anticancer activity against human colon cancer xenografts [1]: high anticancer activity

SMILES: CC[C@@](O)(C(=O)[O-])c1cc2n(c(=O)c1CO)Cc1cc3ccccc3nc1-2.[Na+] [20(S)-camptothecin Na^+, sodium salt of 20(S)-camptothecin]
potency in clinical trials [4]: low potency
toxicity in clinical trials [4]: high toxicity

SMILES: CC[C@@]1(O)C(=O)OCc2c1cc1n(c2=O)Cc2cc3ccccc3nc2-1 [20(S)-camptothecin]
effect on nontumorigenic cells ([5]; nontumorigenic human cells in vitro): cytostatic
effect on tumorigenic cells ([5]; tumorigenic human cells in vitro): cytotoxic

crossing of the blood brain barrier (human, in vivo): does not cross
clearance in patients with impaired hepatic function: reduced
dose appearing in the bile (in 5 days): Approximately 40%
initial distributive half-life (patients, intravenous injection): approximately 5.0 minutes
children with subclinical cardiac dysfunction ([6]; children, long term follow-up): ≤ 40%
SMILES: COc1cccc2c1C(=O)c1c(O)c3c(c(O)c1C2=O)C[C@@](O)(C(=O)CO)C[C@@H]3OC1CC(N)C(O)C(C)O1 (stereo partly shown) [doxorubicin]
systemic clearance in obese women (obese women with ideal body weight greater than 130%): significantly reduced
additional toxicity manifested by ([6]; patients): neutropenia, thrombocytopenia, anemia, confusion and hematuria
total cumulative dose at which irreversible cardiac toxicity may occur ([6]; patients): ~550 mg/M^2

SMILES: COc1cccc2c1C(=O)c1c(O)c3c(c(O)c1C2=O)C[C@@](O)([C@@H](O)CO)C[C@@H]3O[C@H]1C[C@H](N)[C@H](O)[C@H](C)O1 [doxorubicinol]
clearance in patients with impaired hepatic function: reduced
